Like-named read-outs stand apart in the source and are kept apart here.
Key:
[1] = commonly used anionic surfactants; no source or concentration printed; cited from earlier work
[2] = Krafft temperature determination in distilled water (water bath, dissolution and frothing on shaking); assay type: physicochemical; details: aqueous solution in distilled water: 0.012% ceteth-10 phosphate, 0.017% dicetyl phosphate, 0.014% sodium cetostearyl sulfate
Method: 0.0012 grams of ceteth-10 phosphate (Moravek Lot 671-144-000-A-20190821-JHO) was weighed into a 20 mL glass scintillation vial. 10.0113 grams of distilled water was added to the scintillation vial and the vial was tightly capped and placed in a water bath. […] The surfactant remained as waxy particles sedimented on the bottom of the vial. After equilibration at 53.0° C. for 435 minutes, ceteth-10 phosphate had dissolved and the sample frothed when shaken. The Krafft temperature of a 0.012% ceteth-10 phosphate aqueous solution was determined to be 53.0° C.
0.0019 grams of dicetyl phosphate (Sigma dihexadecyl phosphate lot STBH2863) was weighed into a 20 mL glass scintillation vial. 11.2262 grams of distilled water was added to the scintillation vial and the vial was tightly capped and placed in a water bath. […] After equilibration at 58.0° C. for 450 minutes, dicetyl phosphate had dissolved and the sample frothed when shaken. The Krafft temperature of a 0.017% dicetyl phosphate aqueous solution was determined to be 58.0° C. 0.0024 grams of sodium cetostearyl sulfate (BASF Lanette E Granules Lot 0021826181) was weighed into a 20 mL glass scintillation vial. 17.0763 grams of distilled water was added to the scintillation vial and the vial was tightly capped and placed in a water bath. […] The Krafft temperature of a 0.014% sodium cetostearyl sulfate aqueous solution was determined to be 41.0° C.

Row | Krafft Temperature [2] | Krafft Temperature ([2]; listed as ceteth-10 phosphate) | Compound | Krafft Temperature [1]
1 |  |  | CCCCCCCCCCCCOS(=O)(=O)O.N [Ammonium lauryl sulfate] | 10 °C
2 |  |  | CCCCCCCCCCCCCCCCOS(=O)(=O)[O-].[Na+] [Sodium cetyl sulfate] | 45.0 °C
3 |  |  | CCCCCCCCCCOS(=O)(=O)[O-].[Na+] [Sodium decyl sulfate] | 8.0 °C
4 |  |  | CCCCCCCCCCS(=O)(=O)[O-].[Na+] [Sodium decyl sulfonate] | 22.5 °C
5 |  |  | CCCCCCCCCCCCCCCCS(=O)(=O)[O-].[Na+] [Sodium hexadecyl sulfonate] | 57.0 °C
6 |  |  | CCCCCCCCCCCC(=O)[O-].[Na+] [Sodium laurate] | 21.5 °C
7 |  |  | CCCCCCCCCCCCOP(=O)([O-])[O-].[Na+].[Na+] [Sodium lauryl phosphate] | 31.5 °C
8 |  |  | CCCCCCCCCCCCOS(=O)(=O)[O-].[Na+] [Sodium lauryl sulfate] | 16.0 °C
9 |  |  | CCCCCCCCCCCCCC(=O)[O-].[Na+] [Sodium myristate] | 39 °C
10 |  |  | CCCCCCCCCCCCCCOS(=O)(=O)[O-].[Na+] [Sodium myristyl sulfate] | 30.0 °C
11 |  |  | CCCCCCCCCCCCCCS(=O)(=O)[O-].[Na+] [Sodium myristyl sulfonate, Sodium myristyl* sulfonate] | 48.0 °C
12 |  |  | CCCCCCCCCCCCCCCC(=O)[O-].[Na+] [Sodium palmitate] | 69 °C
13 |  |  | CCCCCCCCCCCCCCCCCC(=O)[O-].[Na+] [Sodium stearate] | 71 °C
14 |  |  | CCCCCCCCCCCCCCCCCCOS(=O)(=O)[O-].[Na+] [Sodium stearyl sulfate] | 56.0 °C
15 |  |  | Sodium laureth sulfate | <0 °C
16 | 53 °C | 53 °C | ceteth-10 phosphate [Ceteth - 10 phosphate] | 

Source: patent US20230134782A1, “TREATMENT OF SKIN CONDITIONS USING HIGH KRAFFT TEMPERATURE ANIONIC SURFACTANTS” (ARCUTIS BIOTHERAPEUTICS, INC., priority 2020, published 2023)
